We go through 2 compounds from patent US20250257075A1, “MACROCYCLIC INHIBITORS OF KRAS FOR THE TREATMENT OF CANCER” (Hoffmann-La Roche Inc., priority 2022, published 2025).

The test system of data set [1] is Miapaca-2 mutant cells KRAS G12C + D92R. Put plainly: Stable KRAS mutant cell line viability assay (CTG), G12C + D92R. As to conditions: Homo sapiens, MIA PaCa-2, 72 h, 3 d, CellTiter-Glo. In kind it is cell-based. The text has this: (§1) The aim of the study was to determine the potency and efficacy of compounds for cell proliferation using CellTiter-Glo® (CTG) Luminescent Cell Viability Assay (Promega Corp., Madison, WI). We cloned […] KRAS^G12C variant sequences with secondary mutations (V8A, V9Y, S17E, T58I, A59T, S65W, R68S, D69P, M72I, D92R, H95N, Y96D, Q99F, Q99W, Y96H, and F156L) into the Miapaca-2. Totally 14 stable Miapaca-2 mutant cell lines were established through lentivirus infection. For the cell viability assay, cells were dosed with compounds in a 9-point dose-response using a 4 fold dilution series at a top dose of 10 μM. KRAS mutant cells were maintained in DMEM+10% FBS+2.5% HI Horse serum+1% PS+1 μg/mL Puromycin and seeded into 96-well plates at 800-1,500 cells per well 24 h before compound addition and then incubated with compound for 3 d before assaying viability (CellTiter-Glo, Promega). Assays were performed in biological duplicates. Nonlinear regression curves were fitted using Xfit. IC50 (absolute IC50) is the dose at which the estimated viability is 50% relative to untreated wells.

Data set [2] deals with Miapaca-2 mutant cells KRAS G12C + S65W. Put plainly: Stable KRAS mutant cell line viability assay (CTG), G12C + S65W. It is filed as cell-based. As to conditions: Homo sapiens, MIA PaCa-2, 72 h, 3 d, CellTiter-Glo.
Source text: as §1
Background: Cellular ATP, detected with luciferase, serves as a proxy for viable cell number.

Data set [3] concerns Miapaca-2 mutant cells KRAS G12C + R68S. Put plainly: Stable KRAS mutant cell line viability assay (CTG), G12C + R68S. In kind it is cell-based. Particulars: Homo sapiens, MIA PaCa-2, 72 h, 3 d, CellTiter-Glo.
Source text: as §1

For data set [4], the system named is Miapaca-2 mutant cells KRAS G12C + A59T. Put plainly: Stable KRAS mutant cell line viability assay (CTG), G12C + A59T. It is filed as cell-based. As to conditions: Homo sapiens, MIA PaCa-2, 72 h, 3 d, CellTiter-Glo.
Source text: as §1

In data set [5] the test system is Miapaca-2 mutant cells KRAS G12C + T58I. The experiment in a line: Stable KRAS mutant cell line viability assay (CTG), G12C + T58I. In kind it is cell-based. Particulars: Homo sapiens, MIA PaCa-2, 72 h, 3 d, CellTiter-Glo.
Source text: as §1

In data set [6] the test system is Miapaca-2 mutant cells KRAS G12C + V9Y. The experiment in a line: Stable KRAS mutant cell line viability assay (CTG), G12C + V9Y. In kind it is cell-based. As to conditions: Homo sapiens, MIA PaCa-2, 72 h, 3 d, CellTiter-Glo.
Source text: as §1

Data set [7] deals with Miapaca-2 mutant cells KRAS G12C + Q99W. The experiment in a line: Stable KRAS mutant cell line viability assay (CTG), G12C + Q99W. It is filed as cell-based. As to conditions: Homo sapiens, MIA PaCa-2, 72 h, 3 d, CellTiter-Glo.
Source text: as §1

For data set [8], the system named is Miapaca-2 mutant cells KRAS G12C + Y96D. The experiment in a line: Stable KRAS mutant cell line viability assay (CTG), G12C + Y96D. In kind it is cell-based. As to conditions: Homo sapiens, MIA PaCa-2, 72 h, 3 d, CellTiter-Glo.
Source text: as §1

The subject of data set [9] is Miapaca-2 mutant cells KRAS G12C + V8A. The experiment in a line: Stable KRAS mutant cell line viability assay (CTG), G12C + V8A. In kind it is cell-based. Particulars: Homo sapiens, MIA PaCa-2, 72 h, 3 d, CellTiter-Glo.
Source text: as §1

A short description of data set [10]: Single Dose Pharmacokinetics (SDPK) study in female BALB/c mice. It is filed as in vivo. As to conditions: mouse; for clearance: 3 mg/kg, iv; for clearance / AUC(0-t) / Cmax: female BALB/c mice, plasma. As for the experimental part:
The purpose of this study was to determine the pharmacokinetics of selected compounds following single intravenous bolus or oral gavage administration in female BALB/c mice. Briefly, two groups of female BALB/c mice (available from Zhejiang Vital River Laboratory Animal Technology Co., Ltd. or Shanghai Lingchang Biotechnology Co., Ltd) (N=3/group) were treated with a single dose of compound intravenously at 3 mg/kg (IV) or orally at 30 mg/kg (PO). Blood samples were collected at 5 min (only for IV), 15 min, 30 min, 1 h, 2 h, 4 h, 7 h and 24 h post-dose. Blood samples were placed on ice until centrifugation to obtain plasma samples. The concentration of compound in plasma samples was determined using LC-MS/MS method. The pharmacokinetic parameters were calculated by non-compartmental analysis.

For data set [11], the system named is Miapaca-2 mutant cells KRAS G12C + H95N. The experiment in a line: Stable KRAS mutant cell line viability assay (CTG), G12C + H95N. It is filed as cell-based. As to conditions: Homo sapiens, MIA PaCa-2, 72 h, 3 d, CellTiter-Glo.
Source text: as §1

The test system of data set [12] is Miapaca-2 mutant cells KRAS G12C + F156L. The experiment in a line: Stable KRAS mutant cell line viability assay (CTG), G12C + F156L. In kind it is cell-based. As to conditions: Homo sapiens, MIA PaCa-2, 72 h, 3 d, CellTiter-Glo.
Source text: as §1

Data set [13] deals with Miapaca-2 mutant cells KRAS G12C + M72I. Put plainly: Stable KRAS mutant cell line viability assay (CTG), G12C + M72I. It is filed as cell-based. Particulars: Homo sapiens, MIA PaCa-2, 72 h, 3 d, CellTiter-Glo.
Source text: as §1

Data set [14] relates to Miapaca-2 mutant cells KRAS G12C + S17E. Put plainly: Stable KRAS mutant cell line viability assay (CTG), G12C + S17E. It is filed as cell-based. Particulars: Homo sapiens, MIA PaCa-2, 72 h, 3 d, CellTiter-Glo.
Source text: as §1

Data set [15] concerns Miapaca-2 mutant cells KRAS G12C + D60P. Put plainly: Stable KRAS mutant cell line viability assay (CTG), G12C + D60P. It is filed as cell-based. Particulars: Homo sapiens, MIA PaCa-2, 72 h, 3 d, CellTiter-Glo.

As to `CCn1c(-c2cc(N3CCOCC3)cnc2[C@H](C)OC)c2c3cc(c(F)cc31)-c1csc(n1)C[C@H](NC(=O)[C@H](C(C)C)N(C)C(=O)[C@H]1C[C@@H](C#CC(F)(F)F)C1)C(=O)N1CCC[C@H](N1)C(=O)OCC(C)(C)C2` (atropisomer, axis not shown; (M)) [Example 11, cis-N-[(1S)-1-[[(7S,13S)-21-ethyl-24-fluoro-(20M)-20-[2-[(1S)-1-methoxyethyl]-5-morpholino-3-pyridyl]-17,17-dimethyl-8,14-dioxo-15-oxa-4-thia-9,21,27,28-tetrazapentacyclo[17.5.2.1^2,5.1^9,13.0^22,26]octacosa-1(25),2,5(28),19,22(26),23-hexaen-7-yl]carbamoyl]-2-methyl-propyl]-N-methyl-3-(3,3,3-trifluoroprop-1-ynyl)cyclobutanecarboxamide], the IC50 (as a rule, the midpoint of a concentration-inhibition curve) in data set [1] is 0.002 µM; in data set [2], 0.003 µM; in data set [3], 0.022 µM; in data set [4] it was 0.032 µM; in data set [5], 0.003 µM; in data set [6], 0.003 µM. Besides, the half-inhibitory concentration (IC50) in data set [7] amounted to 0.003 µM; in [8] it was 0.006 µM; in data set [9] it was 0.001 µM; in [11] it was 0.003 µM; in data set [12], 0.003 µM; in data set [13] it was 0.001 µM. Also, the IC50 in [14] stood at 0.003 µM; in [15] it was 0.097 µM. Further, the “AUC0-last relative to A168” value in data set [10] (30 mg/kg, po, versus A168) stood at 1.5 folds. Besides, the “Cmax relative to A168” value in data set [10] (30 mg/kg, po, versus A168) is roughly 2 folds. The clearance (in general, the volume of plasma or blood freed of the substance per unit of time) in data set [10] came to 14.2 mL/min/kg. Further, the AUC(0-t) (in general, exposure summed from dosing to a finite time, without extrapolation to infinity) in [10] (30 mg/kg, po) was determined as 2180 ng·h/mL. In data set [10] (30 mg/kg, po), the concentration peaked (Cmax) at 1510 ng/mL.
As for `CC#CC(=O)N1CC[C@H](C(=O)N(C)[C@H](C(=O)N[C@H]2Cc3nc(cs3)-c3ccc4c(c3)c(c(-c3cccnc3[C@H](C)OC)n4CC)CC(C)(C)COC(=O)[C@@H]3CCCN(N3)C2=O)C(C)C)C1` [Example A168, reference compound], the clearance in data set [10] is 77 mL/min/kg. For the same compound, in [10] (30 mg/kg, po), the AUC(0-t) came to 1580 ng·h/mL and the Cmax (in general, the maximum level reached in the sampled fluid or tissue) turned out to be 794 ng/mL.
